Test results: patent US4707468A, “Polypeptide” (Eisai Co., Ltd., priority 1984, dated 1987)

Experiments:
[1] = tested on: mice; assay: Toxicity (minimum lethal dose) in mice; format: in vivo; conditions: administered subcutaneously in mice
Excerpt: The relationship between the toxicity (minimum lethal dose) of the peptide compound obtained in Examples 1 and 2 of the present invention and the effective dose is shown in Table 4.
Effective dose and minimum lethal dose
when administered subcutaneously in mice

[2] = tested on: rabbit vas deferens; assay: Opioid activity, rabbit vas deferens method (inhibition of electrically stimulated contraction); format: cell-based; conditions: electric stimulation 0.1 Hz, 1 ms, 90 volt
Procedure: The opioid activities of the compounds of the invention were examined by the method using rabbit vas deferens according to T. Oka, K. Negishi, M. Suda, T. Matsumiya, T. Inaza and M. Ueki, "Europ. J. Pharmacol.", Vol. 73, 235 (1980). In this test, mature male rabbits were sacrificed by introducing air into an […]. Immediately after death, a laparotomy was conducted and right and left vasa deferens were removed. The semen was pressed out of the ducts into Ringer's solution. A part of each duct was cut ([…] long from an end of the prostrate gland side). The pieces of the deferentaial ducts were suspened by means of a thread in a 6 ml constant-temperature glass cell and stimulated electrioally with an electric stimulation device having platinum electrodes under conditions of 0.1 Hz, 1 ms and 90 volt. A contraction due to the electric stimulation was recorded through a transducer.
The opioid activity was determined on the basis of the inhibition of the contraction due to the electric stimulation.
The results are shown in Table 3 in terms of 50% inhibitation concentration (IC50).
The following compounds obtained in the examples ere tested in the same way as described above.

Row | Molecule | Minimum Lethal Dose [1] | IC50 [2]
1 | CCNC(=O)[C@@H](CC(C)C)NC(=O)[C@H](CCCNC(=N)N)N(C)C(=O)[C@H](CCCNC(=N)N)NC(=O)[C@H](CC(C)C)NC(=O)[C@H](Cc1ccccc1)NC(=O)CNC(=O)CNC(=O)[C@H](Cc1ccc(O)cc1)NC [Example 1, CH3 Tyr-Gly-Gly-Phe-Leu-Arg-CH3 Arg-D-Leu-NHC2 H5] | 100 mg/kg | –
2 | CN[C@@H](Cc1ccc(O)cc1)C(=O)NCC(=O)NCC(=O)N[C@@H](Cc1ccccc1)C(=O)N[C@@H](CC(C)C)C(=O)N[C@@H](CCCNC(=N)N)C(=O)N(C)[C@@H](CCCNC(=N)N)C(=O)N[C@H](C)C(=O)O [Example 30, CH3 Tyr-Gly-Gly-Phe-Leu-Arg-CH3 Arg-D-Ala-OH] | > 100 mg/kg | –
3 | CN[C@@H](Cc1ccc(O)cc1)C(=O)NCC(=O)NCC(=O)N[C@@H](Cc1ccccc1)C(=O)N[C@@H](CC(C)C)C(=O)N[C@@H](CCCNC(=N)N)C(=O)N(C)[C@@H](CCCNC(=N)N)C(=O)N(C)[C@@H](C)C(=O)O [Example 31, CH3 Tyr-Gly-Gly-Phe-Leu-Arg-CH3 Arg-CH3 Ala-OH] | > 100 mg/kg | –
4 | CC[C@H](C)[C@@H](C(=O)O)N(C)C(=O)[C@H](CCCNC(=N)N)N(C)C(=O)[C@H](CCCNC(=N)N)NC(=O)[C@H](CC(C)C)NC(=O)[C@H](Cc1ccccc1)NC(=O)CNC(=O)CNC(=O)[C@H](Cc1ccc(O)cc1)NC [Example 36, CH3 Tyr--Gly--Gly--Phe--Leu--Arg--CH3 Arg--CH3 Ile--OH] | > 100 mg/kg | –
5 | H-Tyr-Gly-Gly-Phe-Leu-Arg-Arg-Ile-Arg-Pro-Lys-Leu-Lys-Trp-Asp-Asn-Gln-OH [dynorphin A (1-17)] | – | 17.4 nM
